{
  "source": "patent US20220054494A1",
  "about": "“METHODS FOR TREATING BLADDER AND URETHRA DYSFUNCTION AND DISEASE” (University of Pittsburgh - Of the Commonwealth System of …, priority 2019, published 2022)",
  "key": {"cleaved caspase 3": {"tested_on": "cleaved caspase 3", "test": "Western immunoblotting, cleaved caspase 3", "type": "in vivo, rat", "details": "aged rats; oral 8-AG 5 mg/kg/day, 6 weeks", "protocol": "Western immunoblotting: One half of each bladder preparation was homogenized using Lysing Matrix D in a FastPrep 24 instrument (MP Biomedicals, Solon, Ohio) in HBSS (5 mM KCl, 0.3 mM KH2PO4, 138 mM NaCl, 4 mM NaHO3, 0.3 mM Na2HCO3, 0.3 mM Na2HPO4, 5.6 mM glucose and 10 mM Hepes, pH 7.4) containing complete protease inhibitor cocktail (1 tablet/10 ml, ROCHE®, Indianapolis, Ind.)) and phosphatase inhibitor cocktail (SIGMA®, 1:100). After centrifugation (13000 rpm; 15 min at 4° C.), the membrane protein fraction was prepared by suspending the membrane pellets in lysis buffer containing 0.3 M NaCl, 50 mM Tris-HCl (pH 7.6) and 0.5% Triton X-100 and the same concentration of protease inhibitors as above. The suspensions were incubated on ice and centrifuged (13000 rpm; 15 min at 4° C.). The protein concentrations of the combined supernatants were determined using the PIERCE® BCA protein assay (THERMO SCIENTIFIC®, Rockford, Ill.). After denaturation (100° C. for 5 min) in the presence of Laemmli sample buffer, lysate from each sample was separated on a 4-15% TGX Stain-Free SDS-PAGE gel (BIO-RAD® Laboratories, Hercules, Calif.). As a loading control, total protein per sample was determined using Bio-Rad® Stain Free SDS-PAGE gel technology. UV-activated protein fluorescence was imaged on a CHEMIDOC® MP (BIO-RAD®). […] The volume (intensity) of each protein species was determined and normalized to total protein using Image Lab software (BIO-RAD®)."}, "[1]": {"tested_on": "bladder wall collagen fibers", "test": "Planar biaxial mechanical testing coupled with multiphoton microscopy of bladder wall", "type": "in vivo, rat", "details": "aged rats", "protocol": "Protocol 3: Planar biaxial mechanical testing coupled with multiphoton microscopy was performed on bladder wall specimens to assess bladder mechanical function while simultaneously observing changes in the collagen microstructure. Briefly, the unloaded intact bladder diameter (do) and meridional length (hv) were measured and used to calculate the unloaded bladder volume (V0) from the ellipsoid volume, V0=πd0^2h0/6. The intact bladders were then cut open longitudinally and trimmed into 6±1 mm×6±1 mm square specimens for mechanical testing with sides aligned in the in situ longitudinal and circumferential directions. Samples were then positioned in the custom-designed biaxial testing system and mechanically tested using fiducial markers on the sample to calculate stretch, defined as the ratio of distance between markers in sample when loaded and unloaded. A multiphoton microscope (OLYMPUS® FV1000 MPE) equipped with a Coherent Cheleon TiSapphire pulsed Laser was used to image the undulated (wavy) collagen fibers in the mounted samples without staining or fixation during loading (i.e., stretch) as per previously published methods. Stacks of 2D planar images were generated by imaging sequentially across the wall thickness. To avoid tissue damage while obtaining a large range of stretch, loading was stopped at the stretch where collagen fibers were visibly straightened (heretofore termed recruited). This was defined as the maximum stretch. Fiber tortuosity was measured by tracing collagen fibers across the 2D slices (Filament function in Imaris, Bitplane, Switzerland). Fiber arc length (s) and cord length (L) were determined for each fiber tracing and used to calculate the tortuosity. The tortuosity of an undulated or wavy fiber is, therefore, greater than one and approaches one as the fiber becomes fully straightened.\nBi-axial Stretch Combined with Multi-Photon (MPM) Imaging: Planar biaxial mechanical testing coupled with multiphoton microscopy was performed on bladder wall specimens to assess bladder mechanical function while simultaneously observing changes in the collagen microstructure. Briefly, the unloaded intact bladder diameter (do) and meridional length (hv) were measured and used to calculate the unloaded bladder volume (V0) from the ellipsoid volume, V0=πd0^2h0/6. The intact bladders were then cut open longitudinally and trimmed into 6±1 mm×6±1 mm square specimens for mechanical testing with sides aligned in the situ longitudinal and circumferential directions. […] Fiber tortuosity was measured by tracing collagen fibers across the 2D slices (Filament function in Imaris, Bitplane, Switzerland). Fiber arc length (s) and cord length (L) were determined for each fiber tracing and used to calculate the tortuosity. […]"}, "CYP-treated rats": {"tested_on": "CYP-treated rats", "test": "Images of intact bladders in CYP cystitis model (inflammation and bleeding)", "type": "in vivo, rat", "details": "CYP (75 mg/kg i.p.) female Sprague Dawley rats; oral 8-AG 5 mg/kg/day starting one week prior to CYP", "protocol": "Animals: Female Sprague Dawley rats were employed in this example (Charles River; Wilmington, Mass.). Three groups of animals were included. Group 1 received an i.p. injection of saline and was used as a control; groups 2 and 3 received an i.p. injection of cyclophosphamide (CYP, SIGMA-ALDRICH®, St Louis, Mo., day 0, 3, 6, sacrifice day 8, 75 mg/kg, i.p.) with group 3 treated with oral 8-AG (5 mg/kg/day; starting one week prior to CYP). CYP induced bladder inflammation and is a well-established pre-clinical model for BPS/IC."}, "[2]": {"tested_on": "deoxycorticosterone/salt-induced hypertension", "details": "chronic oral treatment of rats; Jackson et al. 2016; cited from earlier work"}},
  "note": "Entries after “also recorded” stand apart in the source; their conditions may differ.",
  "data": [
    {"molecule": "Nc1nc2[nH]c(N)nc2c(=O)[nH]1", "note": "[8-AG, 8-Aminoguanine]", "values": [
      {"measurement": "EUS cleaved caspase 3", "setting": "cleaved caspase 3", "value": "restored to a younger state"},
      {"measurement": "cleaved caspase 3 in bladder mucosa", "setting": "cleaved caspase 3", "value": "reversed or restored to levels similar to the younger state; also recorded: restored changes similar to a younger state"},
      {"measurement": "cleaved caspase 3 in detrusor smooth muscle", "setting": "cleaved caspase 3", "value": "levels similar to the younger state; also recorded: restored these biomarkers to that of a younger state"},
      {"measurement": "bladder compliance (stress-stretch curve)", "setting": "[1]; oral 8-AG 5 mg/kg/day, 6 weeks", "value": "more extensible (or compliant) bladder; also recorded: more extensible, compliant bladder"},
      {"measurement": "collagen fiber tortuosity in the detrusor layer", "setting": "[1]; oral 8-AG 5 mg/kg/day, 6 weeks", "value": "increased; also recorded: restored fiber tortuosity to that of younger rats"},
      {"measurement": "collagen fiber tortuosity in the lamina propria", "setting": "[1]; oral 8-AG 5 mg/kg/day, 6 weeks", "value": "increased; also recorded: Normalizing; also recorded: restored fiber tortuosity to that of younger rats"},
      {"measurement": "critical stretch at which the steep increase in bladder stiffness occurs", "setting": "[1]; oral 8-AG for 1 week and 4 weeks", "value": "recovered to levels found in young rats"},
      {"measurement": "bladder inflammation and bleeding (images of intact bladders)", "setting": "CYP-treated rats", "value": "nearly abolished"},
      {"measurement": "development of deoxycorticosterone/salt-induced hypertension", "setting": "[2]", "value": "attenuate"}
    ]}
  ]
}
